Measurements taken from the supplement of paper PMC11451515.

Columns and labels:
Conditions in all cases: 48 h
NOMO1 [1] = test: AUC of viability dose-response curve (% viability x log10 dose units); higher = less sensitive
Summary of the method: (§1)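 In 1536-well plates, leukemia cells adapted to each medium (500 or 1000 cells/well) were exposed for 48 h at 37°C to library compounds in DMSO across 11 threefold doses, 47 μM down to 0.79 nM. Viability was read by CellTiter-Glo One luminescence and normalised per plate to DMSO and cell-free wells. A four-parameter log-logistic fit over log10 doses was integrated by trapezoidal rule. This yielded the area under the curve, with over-full-viability curves scaled and quality-control failures dropped.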

P12-Ichikawa [2] = test: as above
Summary of the method: as §1

SEM cells [3] = test: as above
Summary of the method: as §1

NOMO1 [4] = test: cell viability relative to DMSO control; higher = less cytotoxic
Summary of the method: (§2)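 NOMO1 or SEM (500 cells/well) or P12-Ichikawa (1000 cells/well) leukemia cells were adapted for at least four passages in each medium. They were seeded in 1536-well plates (5 μl) and pin-dosed with library compounds in DMSO over an 11-point threefold series, 47 μM to 0.79 nM. CellTiter-Glo One luminescence was read after 48 h at 37°C. Viability is the per-plate percentage relative to DMSO wells, with cell-free wells as background.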

P12-Ichikawa [5] = test: as above
Summary of the method: as §2

SEM cells [6] = test: as above
Summary of the method: as §2

CC(C)NCC(O)c1ccc(O)c(O)c1 (configuration not stated)
AUC of viability dose-response curve
Conditions | NOMO1 [1] | P12-Ichikawa [2] | SEM cells [3]
HPLM + 10% dialyzed FBS | 376 | 389 | 455
RPMI 5 mM glucose + 10% FBS | 389 | 394 | 427
RPMI 5 mM glucose + 10% dialyzed FBS | 391 | 407 | 457

CSC1=CC(=CC=C1)NC2=NC3=C(C=N2)/C=C(C(=O)N3C)/C4=C(Cl)C=CC=C4Cl
cell viability [%]
Conditions | NOMO1 [4] | P12-Ichikawa [5] | SEM cells [6]
HPLM + 10% dialyzed FBS, 0.000781 µM | 96.6 | 102 | 86.5
HPLM + 10% dialyzed FBS, 0.00234 µM | 114 | 95 | 90.7
HPLM + 10% dialyzed FBS, 0.00702 µM | 118 | 101 | 97.7
HPLM + 10% dialyzed FBS, 0.0211 µM | 101 | 98.3 | 77.3
HPLM + 10% dialyzed FBS, 0.0632 µM | 119 | 106 | 86.4
HPLM + 10% dialyzed FBS, 0.19 µM | 101 | 110 | 89.7
HPLM + 10% dialyzed FBS, 0.569 µM | 108 | 99.2 | 97
HPLM + 10% dialyzed FBS, 1.71 µM | 107 | 105 | 99.4
HPLM + 10% dialyzed FBS, 5.12 µM | 115 | 97.4 | 88.9
HPLM + 10% dialyzed FBS, 15.4 µM | 114 | 95.1 | 77
HPLM + 10% dialyzed FBS, 46.1 µM | 108 | 103 | 55.2
RPMI 5 mM glucose + 10% FBS, 0.000781 µM | 96.1 | 99.6 | 120
RPMI 5 mM glucose + 10% FBS, 0.00234 µM | 124 | 111 | 110
RPMI 5 mM glucose + 10% FBS, 0.00702 µM | 128 | 115 | 110
RPMI 5 mM glucose + 10% FBS, 0.0211 µM | 109 | 109 | 53.5
RPMI 5 mM glucose + 10% FBS, 0.0632 µM | 118 | 115 | 105
RPMI 5 mM glucose + 10% FBS, 0.19 µM | 101 | 106 | 97.4
RPMI 5 mM glucose + 10% FBS, 0.569 µM | 121 | 112 | 126
RPMI 5 mM glucose + 10% FBS, 1.71 µM | 118 | 112 | 120
RPMI 5 mM glucose + 10% FBS, 5.12 µM | 103 | 109 | 112
RPMI 5 mM glucose + 10% FBS, 15.4 µM | 116 | 95.5 | 91.4
RPMI 5 mM glucose + 10% FBS, 46.1 µM | 102 | 102 | 81.3
RPMI 5 mM glucose + 10% dialyzed FBS, 0.000781 µM | 84.7 | 110 | 96.1
RPMI 5 mM glucose + 10% dialyzed FBS, 0.00234 µM | 95.5 | 109 | 89
RPMI 5 mM glucose + 10% dialyzed FBS, 0.00702 µM | 104 | 110 | 91.9
RPMI 5 mM glucose + 10% dialyzed FBS, 0.0211 µM | 91.3 | 90.8 | 80.1
RPMI 5 mM glucose + 10% dialyzed FBS, 0.0632 µM | 120 | 110 | 96
RPMI 5 mM glucose + 10% dialyzed FBS, 0.19 µM | 118 | 120 | 78.3
RPMI 5 mM glucose + 10% dialyzed FBS, 0.569 µM | 109 | 112 | 103
RPMI 5 mM glucose + 10% dialyzed FBS, 1.71 µM | 112 | 112 | 84.9
RPMI 5 mM glucose + 10% dialyzed FBS, 5.12 µM | 111 | 109 | 84.3
RPMI 5 mM glucose + 10% dialyzed FBS, 15.4 µM | 94 | 97.5 | 69.4
RPMI 5 mM glucose + 10% dialyzed FBS, 46.1 µM | 108 | 97.7 | 52.4

AUC of viability dose-response curve
Conditions | NOMO1 [1] | P12-Ichikawa [2] | SEM cells [3]
HPLM + 10% dialyzed FBS | 467 | 476 | 417
RPMI 5 mM glucose + 10% FBS | 467 | 469 | 455
RPMI 5 mM glucose + 10% dialyzed FBS | 460 | 464 | 407
